Measurements as given in patent US20240382417A1, “Compositions Comprising Guaifenesin and Eriodictyol” (SYMRISE AG, priority 2018, published 2024).
Marks after values point to notes of the source that are not given here.

Tests used:
HGT-1 cells = assay: guaifenesin-induced acid (proton) secretion in HGT-1 cells; format: cell-based, human; conditions: for proton secretory activity (log2 transformed ratio of treated vs. untreated cells): mean ± SEM
From the text: Human gastric tumour cell line 1 (HGT-1; Laboisse C. L.; Augeron C.; Couturier-Turpin M. H.; Gespach C.; Cheret A. M.; Potet F., Characterization of a newly established human gastric cancer cell line HGT-1 bearing histamine H2-receptors, Canc. Res., 1982, 42, 1541 to 1548) is a suitable screening tool for detecting the interaction of bitter agents and bitter modulating substances (Liszt, K. I.; Hans, J.; Ley, J. P.; Kock, E.; Somoza, V., Characterization of bitter compounds via modulation of proton secretion in human gastric parietal cells in culture, J. Agric. Food Chem., 2018, 66 (10), 2295-2300.). Therefore, the effect of eriodictyol on guaifenesin-induced acid secretion in the HGT-1 cell line was determined to predict the modulation of guaifenesin-induced bitterness by eriodictyol. To this aim, HGT-1 cells were cultured under standard conditions and passaged at ca. 80% confluence. […] HGT-1 cells were pre-loaded with (acetyloxy) methyl-3-(acetyloxy)-10-(dimethylamino)-3′-oxo-spiro[7H-benzo [c]xanthene-7,1′(3H)-isobenzofuran]-ar′-carboxylate and incubated in 130 mM NaCl 130, 4.7 mM KCl, 1.3 mM CaCl2, 1.2 mM MgSO4, 1.2 mM KH2PO4, 11.7 mM glucose, 10 mM HEPES 10, 20 μM 4,4′-Diisothiocyanatostilbene-2,2′-disulfonic acid disodium and 20 μM 5-(N-Ethyl-N-isopropyl) amiloride at pH 7.4. Fluorescence recordings were performed with an excitation wavelength of 488 nm and monitoring the emission wavelengths of 580 nm and 640 nm, respectively, each with a 20 nm bandwidth. […]
(§1) The data in Table 1 are presented as mean±SEM derived from 7 biological replicates and 14 to 21 technical replicates. Outliers were identified using the Nalimov test, statistical significance was tested one-way ANOVA with Tukey's range test for multiple comparisons and Bonferroni correction, establishing the threshold for significance at p<0.0071. Accordingly, data are marked with * (p<0.0071), ** (p<0.0014) or *** (p<0.00014). Control: untreated cells
as §1, with “Table 2” for “Table 1”

guaifenesin bitterness = conditions: 200 ppm (0.2 mg/ml) HED against 13 mg/ml guaifenesin; cited from earlier work
trained sensory panel = assay: sensory panel test of guaifenesin-induced bitterness perception (sip and spit, randomized comparison); format: in vivo, human; conditions: guaifenesin used in combination with eriodictyol; refers to Table 3
Procedure: To verify the effect of eriodictyol on guaifenesin-induced bitterness perception, an aqueous solution of 13 g/l guaifenesin (1) was tested against an aqueous solution containing 13 g/l guaifenesin and 20 mg/l eriodictyol (2) or 100 mg/l homoeriodictyol (3). The test was conducted as a randomized comparison test in a trained sensory panel (n=20 to 30) via a sip and spit procedure. The panelists tasted both solutions in a blinded fashion and rated bitterness on a scale of 0 to 100.

Structure (SMILES): COc1cc([C@@H]2CC(=O)c3c(O)cc(O)cc3O2)ccc1O (stereo in doubt) [homoeriodictyol, (2S)-/(2R)-5,7-Dihydroxy-2-(4-hydroxy-3-methoxyphenyl)-4-chromanone]
- proton secretory activity (log2 transformed ratio of treated vs. untreated cells) (HGT-1 cells; 10 mM guaifenesin ± 3 μM homoeriodictyol, timepoint 0 min): −0.2514 ± 0.0260
- proton secretory activity (log2 transformed ratio of treated vs. untreated cells) (HGT-1 cells; 10 mM guaifenesin ± 3 μM homoeriodictyol, timepoint 5 min): −0.1923 ± 0.0304
- proton secretory activity (log2 transformed ratio of treated vs. untreated cells) (HGT-1 cells; 10 mM guaifenesin ± 3 μM homoeriodictyol, timepoint 10 min): −0.2547 ± 0.0320
- proton secretory activity (log2 transformed ratio of treated vs. untreated cells) (HGT-1 cells; 10 mM guaifenesin ± 3 μM homoeriodictyol, timepoint 15 min): −0.2538 ± 0.0317
- proton secretory activity (log2 transformed ratio of treated vs. untreated cells) (HGT-1 cells; 10 mM guaifenesin ± 3 μM homoeriodictyol, timepoint 20 min): −0.2677 ± 0.0264
- proton secretory activity (log2 transformed ratio of treated vs. untreated cells) (HGT-1 cells; 10 mM guaifenesin ± 3 μM homoeriodictyol, timepoint 25 min): −0.2472 ± 0.0296
- proton secretory activity (log2 transformed ratio of treated vs. untreated cells) (HGT-1 cells; 10 mM guaifenesin ± 3 μM homoeriodictyol, timepoint 30 min): −0.2493 ± 0.0300
- proton secretory activity (log2 transformed ratio of treated vs. untreated cells) (HGT-1 cells; 10 mM guaifenesin ± 30 μM homoeriodictyol, timepoint 0 min): −0.2845 ± 0.0235
- proton secretory activity (log2 transformed ratio of treated vs. untreated cells) (HGT-1 cells; 10 mM guaifenesin ± 30 μM homoeriodictyol, timepoint 5 min): −0.1702 ± 0.0265
- proton secretory activity (log2 transformed ratio of treated vs. untreated cells) (HGT-1 cells; 10 mM guaifenesin ± 30 μM homoeriodictyol, timepoint 10 min): −0.1272 ± 0.0263*
- proton secretory activity (log2 transformed ratio of treated vs. untreated cells) (HGT-1 cells; 10 mM guaifenesin ± 30 μM homoeriodictyol, timepoint 15 min): −0.1934 ± 0.0259
- proton secretory activity (log2 transformed ratio of treated vs. untreated cells) (HGT-1 cells; 10 mM guaifenesin ± 30 μM homoeriodictyol, timepoint 20 min): −0.2282 ± 0.0260
- proton secretory activity (log2 transformed ratio of treated vs. untreated cells) (HGT-1 cells; 10 mM guaifenesin ± 30 μM homoeriodictyol, timepoint 25 min): −0.1601 ± 0.0206
- proton secretory activity (log2 transformed ratio of treated vs. untreated cells) (HGT-1 cells; 10 mM guaifenesin ± 30 μM homoeriodictyol, timepoint 30 min): −0.2187 ± 0.0244
- inhibition of proton secretion compared with eriodictyol (HGT-1 cells; co-incubation of 10 mM guaifenesin with 30 μM homoeriodictyol): did not exhibit such a pronounced inhibition
- change in proton secretion compared to 10 mM guaifenesin alone (HGT-1 cells; co-incubation of 10 mM guaifenesin with 30 μM homoeriodictyol, only the time point at 10 min (p<0.0071)): significant decrease
- reduction in guaifenesin bitterness (guaifenesin bitterness): about 40%

Structure (SMILES): O=C1CC(c2ccc(O)c(O)c2)Oc2cc(O)cc(O)c21 [eriodictyol, (2S)-/(2R)-2-(3,4-dihydroxyphenyl)-5,7-dihydroxy-4-chromanone]
- proton secretory activity (log2 transformed ratio of treated vs. untreated cells) (HGT-1 cells; 10 mM guaifenesin + 3 μM eriodictyol, timepoint 0 min): −0.3389 ± 0.0274
- proton secretory activity (log2 transformed ratio of treated vs. untreated cells) (HGT-1 cells; 10 mM guaifenesin + 3 μM eriodictyol, timepoint 5 min): −0.3351 ± 0.0246
- proton secretory activity (log2 transformed ratio of treated vs. untreated cells) (HGT-1 cells; 10 mM guaifenesin + 3 μM eriodictyol, timepoint 10 min): −0.2874 ± 0.0241
- proton secretory activity (log2 transformed ratio of treated vs. untreated cells) (HGT-1 cells; 10 mM guaifenesin + 3 μM eriodictyol, timepoint 15 min): −0.2595 ± 0.0264
- proton secretory activity (log2 transformed ratio of treated vs. untreated cells) (HGT-1 cells; 10 mM guaifenesin + 3 μM eriodictyol, timepoint 20 min): −0.2622 ± 0.0286
- proton secretory activity (log2 transformed ratio of treated vs. untreated cells) (HGT-1 cells; 10 mM guaifenesin + 3 μM eriodictyol, timepoint 25 min): −0.3259 ± 0.0279
- proton secretory activity (log2 transformed ratio of treated vs. untreated cells) (HGT-1 cells; 10 mM guaifenesin + 3 μM eriodictyol, timepoint 30 min): −0.3237 ± 0.0296
- proton secretory activity (log2 transformed ratio of treated vs. untreated cells) (HGT-1 cells; 10 mM guaifenesin + 30 μM eriodictyol, timepoint 0 min): −0.2324 ± 0.0297
- proton secretory activity (log2 transformed ratio of treated vs. untreated cells) (HGT-1 cells; 10 mM guaifenesin + 30 μM eriodictyol, timepoint 5 min): −0.2396 ± 0.0252
- proton secretory activity (log2 transformed ratio of treated vs. untreated cells) (HGT-1 cells; 10 mM guaifenesin + 30 μM eriodictyol, timepoint 10 min): −0.1630 ± 0.0308***
- proton secretory activity (log2 transformed ratio of treated vs. untreated cells) (HGT-1 cells; 10 mM guaifenesin + 30 μM eriodictyol, timepoint 15 min): −0.1472 ± 0.0302**
- proton secretory activity (log2 transformed ratio of treated vs. untreated cells) (HGT-1 cells; 10 mM guaifenesin + 30 μM eriodictyol, timepoint 20 min): −0.1496 ± 0.0269**
- proton secretory activity (log2 transformed ratio of treated vs. untreated cells) (HGT-1 cells; 10 mM guaifenesin + 30 μM eriodictyol, timepoint 25 min): −0.1478 ± 0.0283***
- proton secretory activity (log2 transformed ratio of treated vs. untreated cells) (HGT-1 cells; 10 mM guaifenesin + 30 μM eriodictyol, timepoint 30 min): −0.1886 ± 0.0272*
- change in proton secretory activity of HGT-1 cells compared to 10 mM guaifenesin alone (HGT-1 cells; co-incubation of 10 mM guaifenesin with 30 μM eriodictyol, from 10 min onwards): significant decrease
- reduction of bitterness of guaifenesin (trained sensory panel): ≥ 35%

Structure (SMILES): COc1ccccc1OCC(O)CO (centres unmarked) [guaifenesin, 3-(2-methoxyphenoxy-) 1,2-propanediol]
- proton secretory activity (log2 transformed ratio of treated vs. untreated cells) (HGT-1 cells; 10 mM guaifenesin alone, Table 1, timepoint 0 min): −0.3130 ± 0.0306
- proton secretory activity (log2 transformed ratio of treated vs. untreated cells) (HGT-1 cells; 10 mM guaifenesin alone, Table 1, timepoint 5 min): −0.2720 ± 0.0225
- proton secretory activity (log2 transformed ratio of treated vs. untreated cells) (HGT-1 cells; 10 mM guaifenesin alone, Table 1, timepoint 10 min): −0.3283 ± 0.0253
- proton secretory activity (log2 transformed ratio of treated vs. untreated cells) (HGT-1 cells; 10 mM guaifenesin alone, Table 1, timepoint 15 min): −0.2945 ± 0.0277
- proton secretory activity (log2 transformed ratio of treated vs. untreated cells) (HGT-1 cells; 10 mM guaifenesin alone, Table 1, timepoint 20 min): −0.2885 ± 0.0266
- proton secretory activity (log2 transformed ratio of treated vs. untreated cells) (HGT-1 cells; 10 mM guaifenesin alone, Table 1, timepoint 25 min): −0.3135 ± 0.0260
- proton secretory activity (log2 transformed ratio of treated vs. untreated cells) (HGT-1 cells; 10 mM guaifenesin alone, Table 1, timepoint 30 min): −0.3241 ± 0.0280
- proton secretory activity (log2 transformed ratio of treated vs. untreated cells) (HGT-1 cells; 10 mM guaifenesin alone, Table 2, timepoint 0 min): −0.2712 ± 0.0190
- proton secretory activity (log2 transformed ratio of treated vs. untreated cells) (HGT-1 cells; 10 mM guaifenesin alone, Table 2, timepoint 5 min): −0.2170 ± 0.0217
- proton secretory activity (log2 transformed ratio of treated vs. untreated cells) (HGT-1 cells; 10 mM guaifenesin alone, Table 2, timepoint 10 min): −0.2543 ± 0.0268
- proton secretory activity (log2 transformed ratio of treated vs. untreated cells) (HGT-1 cells; 10 mM guaifenesin alone, Table 2, timepoint 15 min): −0.2518 ± 0.0274
- proton secretory activity (log2 transformed ratio of treated vs. untreated cells) (HGT-1 cells; 10 mM guaifenesin alone, Table 2, timepoint 20 min): −0.2081 ± 0.0243
- proton secretory activity (log2 transformed ratio of treated vs. untreated cells) (HGT-1 cells; 10 mM guaifenesin alone, Table 2, timepoint 25 min): −0.2454 ± 0.0265
- proton secretory activity (log2 transformed ratio of treated vs. untreated cells) (HGT-1 cells; 10 mM guaifenesin alone, Table 2, timepoint 30 min): −0.2730 ± 0.0241
